Molecular target: Plasmin (Homo sapiens)
Assay: Inhibitory activity of compound against Plasmin (HP)

Ki	SMILES
60 nM	CC(C)(C)OC(=O)N[C@H](Cc1ccccc1)C(=O)N[C@H](C(=O)NC(Cc1ccc(NC(=N)N)cc1)C(=O)C(F)(F)F)c1ccc2ccccc2c1 (stereo partly drawn) [[(R)-1-({(S)-Naphthalen-2-yl-[3,3,3-trifluoro-1-(4-guanidino-benzyl)-2-oxo-propylcarbamoyl]-methyl}-carbamoyl)-2-phenyl-ethyl]-carbamic acid tert-butyl ester]
110000 nM	CC(C)(C)[C@@H](NC(=O)N1CCOCC1)C(=O)NCC(=O)NC(Cc1ccc(NC(=N)N)cc1)C(=O)C(F)(F)F (stereo partly drawn) [Morpholine-4-carboxylic acid [(R)-2,2-dimethyl-1-({[3,3,3-trifluoro-1-(4-guanidino-benzyl)-2-oxo-propylcarbamoyl]-methyl}-carbamoyl)-propyl]-amide]
120 nM	CC(C)(C)[C@@H](NC(=O)OC12CC3CC(CC(C3)C1)C2)C(=O)N[C@@H](Cc1ccccc1)C(=O)NC(Cc1ccc(NC(=N)N)cc1)C(=O)C(F)(F)F (stereo partly drawn) [((R)-2,2-Dimethyl-1-{(S)-2-phenyl-1-[3,3,3-trifluoro-1-(4-guanidino-benzyl)-2-oxo-propylcarbamoyl]-ethylcarbamoyl}-propyl)-carbamic acid adamantan-1-yl ester]
40 nM	N=C(N)Nc1ccc(CC(NC(=O)[C@H](Cc2ccccc2)NC(=O)[C@@H](CCc2ccccc2)NC(=O)OC23CC4CC(CC(C4)C2)C3)C(=O)C(F)(F)F)cc1 (stereo partly drawn) [((R)-3-Phenyl-1-{(S)-2-phenyl-1-[3,3,3-trifluoro-1-(4-guanidino-benzyl)-2-oxo-propylcarbamoyl]-ethylcarbamoyl}-propyl)-carbamic acid adamantan-1-yl ester]

Source: BindingDB's records for doi:10.1016/s0960-894x(98)00562-9 (The Procter & Gamble, 1999)
